Measurements reported in US9034863B2, “Compositions and methods for inhibiting entry of a hepatic virus” (The Board of Trustees of the University of Illinois, priority 2008, dated 2015).
Entries after “also recorded” stand apart in the source; their conditions may differ.

Assays:
Format in all cases: cell-based, Hepatitis C virus (HCV)
[1] = test system: HCV genotype 1b subgenomic replicon; experiment: HCV sg1b replicon RNA replication in Huh7 cells, RT-qPCR; settings: increasing doses, 72 hours
[2] = test system: HCV-JFH-1; experiment: Chronic HCV-JFH-1 infection of Huh7-1 cells, inhibitor combinations, RT-qPCR 24-96 h (FIG. 3-5)
Procedure: RT-qPCR analysis of intracellular HCV RNA levels in Huh7 cultures mock-treated, treated with ezetimibe (30 μM), PI (200 nM), IFN-α (100 U/ml), or indicated combinations thereof (n=3). Data presented are representative of multiple independent experiments.
FIG. 4A, Chronically infected Huh7-1 cell cultures (n=3) treated with ezetimibe (E), naringenin (N), interferon α (I), or combinations thereof, were harvested at 24, 48, 72 or 96 hours post-treatment, intracellular HCV levels were quantified by RT-qPCR, and are presented as HCV copies/μg RNA. FIG. 4B, Chronically infected Huh7-1 cell cultures (n=3) treated with ezetimibe (E), ferristatin (T), interferon α (I), or combinations thereof, were harvested at 24, 48, 72 or 96 hours post-treatment, intracellular HCV levels were quantified by RT-qPCR, and are presented as HCV copies/μg RNA.
Shown are the results of RT-qPCR analysis of intracellular HCV RNA levels in Huh7 cultures mock-treated, treated with ezetimibe (30 μM), polymerase inhibitor, RG7128 (1 μM), or a combination thereof (n=3).
For experiments analyzing the activity of ezetimibe in combination with a protease inhibitor, Huh7-1 cells were infected with HCV-JFH-1 and allowed to reach steady state levels of infection. The HCV-infected cells were seeded in a 96-well plate and treated with the following: medium alone, 30 μM ezetimibe, 200 nM ITMN5537, 100 μ/ml IFN-α, and combinations of the above drugs at the specified concentrations. Medium and drugs were replaced every 24 hours. Triplicate wells were harvested at 24, 48, 72 or 96 hours post-treatment, in 200 μl/well of 1×ABI lysis buffer and stored at −80° C. until RNA extraction.
Therefore, the therapeutic potential of an IFN-free antiviral cocktail was also investigated, using ezetimibe in combination with other direct acting inhibitors of HCV amplification, specifically an inhibitor of the HCV NS3/4A protease (ITMN 5537; Intermune, Brisbane, Calif.). Huh7-1 cells were infected with HCV-JFH-1 and allowed to reach steady state levels of infection. Cells were monotreated with protease inhibitor (PI) or ezetimibe or IFN alone or treated with combinations of PI+ezetimibe or PI+IFN or IFN+ezetimibe or a combination of all three inhibitors. Samples were harvested at 24, 48, 72 or 96 hours post-treatment, the intracellular RNA was extracted and RT-qPCR performed to quantify HCV copies.
Thus, parallel cultures of chronically infected Huh7-1 cells were established and subsequently treated with ezetimibe, naringenin or IFN-α, either alone or in combination. Treatments were replenished every 24 hours. Triplicate cultures of each treatment condition were harvested at 24, 48, 72 or 96 hours post-treatment and intracellular HCV levels were quantified by RT-qPCR (FIG. 4A). […] Thus, no evidence of synergy was observed when IFN-α was combined with an egress inhibitor that only blocks cell-free spread.
As an alternative method of determining the therapeutic importance of inhibiting HCV cell-to-cell spread, an inhibitor to TfR1 was used. TfR1 has also been identified as another host cell factor that is involved in cell-free entry of HCV into cells, but is not required for cell-to-cell-mediated HCV entry. Thus, unlike ezetimibe which inhibits both cell-free and cell-to-cell HCV spread, the TfR1 inhibitor, ferristatin, only blocks cell-free virus spread. Again, chronically infected Huh7-1 cell cultures were established and treated with ezetimibe (30 μM), ferristatin (50 μM), or IFN-α (100 U/ml), either alone or in combination and treatments were replenished every 24 hours. Intracellular HCV copies were quantified from triplicate cultures by RT-qPCR at 24, 48, 72 or 96 hours post-treatment (FIG. 4B).
Huh7-1 cells were infected with HCV-JFH-1 and allowed to reach steady state levels of infection. Cells were monotreated with HCV polymerase inhibitor RG7128 (1 μM) or ezetimibe (30 μM) alone or treated with a combination of RG7128 and ezetimibe. […]

[3] = test system: HCVcc; experiment: Secretion of infectious HCVcc, extracellular infectivity titration; settings: 30 μM, 24-96 hours post-treatment
Procedure: Cell supernatants were serially diluted 10-fold in cDMEM and 100 μl was used to infect, in triplicate, 4×10^3 naïve Huh7 cells per well in 96-well plates (BD Biosciences). The inoculum was incubated with cells for 24 hours at 37° C. and then overlayed with 150 μl complete DMEM containing 0.4% methylcellulose (w/v) (Fluka BioChemika, Switzerland) to give a final concentration of 0.25% methylcellulose. Seventy-two hours post-infection, medium was removed, cells were fixed with 4% paraformaldehyde (Sigma) and immunohistochemical staining for HCV E2 was performed. […] The HCV E2 glycoprotein was detected by incubation at room temperature with 1×PBS containing 0.5% (v/v) TRITON X-100 and 3% (w/v) BSA and a 1:500 dilution of the human monoclonal anti-HCV E2 antibody C1. Bound C1 was subsequently detected by a 1 hour incubation with a 1:1000 dilution of an HRP-conjugated anti-human antibody (Pierce, Rockford, Ill.) followed by a 30 minute incubation with an AEC detection substrate (BD Biosciences). […] Viral infectivity titers are expressed as FFU per milliliter of supernatant (FFU/ml), determined by the average number of E2-positive foci detected in triplicate samples at the highest HCV-positive dilution.
Huh7 cultures were inoculated with HCVcc at an MOI of 0.01 FFU cell-1. […] Infectivity titers are expressed as mean FFU/ml±SD for triplicate samples.

Row | SMILES | sg1b HCV RNA steady-state levels [1] | reduction of HCV levels (FIG. 5) ([2]; RG7128 1 μM, ezetimibe 30 μM, normalized to Mock) | reduction of HCV levels (FIG. 3) ([2]; ezetimibe 30 μM, PI 200 nM, IFN-α 100 U/ml) | decrease in intracellular HCV load (FIG. 4B) ([2]; ezetimibe 30 μM, ferristatin 50 μM, IFN-α 100 U/ml) | reduction of HCV copies (FIG. 4A) ([2]; ezetimibe, naringenin, IFN-α alone or in combination) | secretion of infectious HCVcc (infectivity titers) [3] | increase in intracellular HCV copies (FIG. 4A) ([2]; naringenin alone)
1 | O=C1[C@H](CC[C@H](O)c2ccc(F)cc2)[C@@H](c2ccc(O)cc2)N1c1ccc(F)cc1 [ezetimibe, 1-(4-fluorophenyl)-(3R)-[3-(4-fluorophenyl)-(3S)-hydroxypropyl]-(45)-(4-hydroxyphenyl)-2-azetidinone] | did not inhibit HCV subgenomic RNA replication; also recorded: no significant reduction | did not reduce HCV levels | did not reduce HCV levels | neither ezetimibe nor ferristatin alone reduced intracellular HCV load | did not reduce HCV levels | did not inhibit secretion of infectious HCVcc | 
2 | O=C1C[C@@H](c2ccc(O)cc2)Oc2cc(O)cc(O)c21 [naringenin] |  |  |  |  |  |  | about 50%
